In patent publication US20240238235A1, “METHODS AND COMPOSITIONS FOR TREATING PULMONARY ALVEOLAR PROTEINOSIS RELATED TO MARS MUTATIONS” (INSTITUT NATIONAL DE LA SANTÉ ET DE LA RECHERCHE MÉDICALE, priority 2021, published 2024):
Read-outs that look alike come from different tables or passages of the source.

Columns and labels:
[1] = Protocol: The level of methioninemia in a healthy subject should be measured on an empty stomach and should be less than 45 μM. Typically, in the subject affected by MARS mutations, the level of methioninemia to reach efficacy should be in the range of 45-500 μM (>45 μM at residual dosage and <500 μM at peak dosage 1 hour after the dose has been taken). The level of methioninemia is measured with the following methods. […] For accurate quantification, stable isotope internal standards of the same structure for each metabolite (Eurisotop, Saint Aubin, France) are added to samples before protein precipitation. Internal standards are labeled on all carbons and nitrogen(s) with following exceptions: glutamine 2,3,3,4,4-D5, asparagine ^13C4, tryptophan Indole-D5, citrulline ^13CD4 and homocysteine 3,3,3′,3′,4,4,4′,4′-D8. Samples are first derivatized using the AccQ Tag™ Ultra (Waters Corporation, Milford, MA, USA) according to manufacturer recommendations. Amino acid separation is performed with an Acquity™ UPLC system using a CORTECS™ UPLC C18 column (1.6 μm, 2.1×150 mm) coupled to microTQS™ tandem mass spectrometer (Waters Corporation, Milford, MA, USA). The run time for quantification of all amino acids is 12 min.
The MetPAP study was registered at clinicaltrials.gov (NCT03887169). […] The secondary objectives were to determine the efficacy of such treatment.
The frequency of medication was based on the known half-life of the moleculel and the peak was determined by performing kinetic measurements on the patients during the first day of supplementation.

[2] = test system: peripheral monocytes; conditions: control = 100%
Protocol: Peripheral monocyte and phagocyte functions were assessed by quantifying ROS production. Whole blood collected from lithium heparinized tubes (500 μl) was incubated for 15 min at 37° C. with dihydrorhodamine 123[…] (Sigma-Aldrich). Samples were then treated for 1 h at 37° C. with GM-CSF (10 ng/ml; R&D Systems), followed by stimulation for 5 min with fMLF (10^-5M; Sigma-Aldrich). The reaction was stopped by adding 1 ml ice-cold lysis solution (BD Biosciences) and incubating for 5 min on ice. Samples were then washed with PBS (Sigma-Aldrich) and the pellets resuspended in 300 μl FacsFlow solution (BD Biosciences). Samples were analyzed by flow cytometry on a FACSCanto II (BD Biosciences). Phagocytes (neutrophils and monocytes) were selected on the FSC-SSC dot plot. Events (50,000) were recorded at a constant PMT voltage. Results are expressed as the index of stimulation (MIF DHE GM-CSF+fMLP/DHE GM-CSF alone).

[3] = test system: pulmonary alveolar proteinosis related to MARS mutations; conditions: P1, 3 and 4
Description: We compared the course of treated patients to that of patients reported by Enaud et al. 2 as well as seven patients diagnosed since this publication. Data collection and analysis for these patients were approved by the Institutional Review Board of the French Respiratory Society (CEPRO2013-019) and the CPP Île de France II (CPP2013-12-03 SC).
Several parameters were compared between treated patients and HC. We computed the difference between the values for each continuous variable at inclusion and at last follow-up for each treated patient, as well as between diagnosis and six months to one year from diagnosis for the HC. Differences were compared between groups using Mann-Whitney tests. For each categorical variable (i.e., weaning from oxygen and enteral nutrition), we compared the proportion of patients who were weaned from such support at the second assessment between groups using Fisher's exact test. A p-value<0.05 was considered statistically significant.

[4] = test system: yeast; conditions: methionine supplementation in the culture medium; cited from earlier work

Structure (SMILES): CSCC[C@H](N)C(=O)O [methionine, L-methionine]
- methioninemia at T0 (residual) ([1]; P3, D21 of treatment): 42 µM
- time of peak plasma methionine after taking the medication ([1]; kinetic study in the patients): 1 h
- residual and peak plasma methionine values over 24-h periods, days and months ([1]; treatment every 6 h): reproducible residual and peak values
- stimulation index relative to control (GM-CSF priming of ROS production by peripheral monocytes) ([2]; P1, after three months of treatment (M3)): 109%
- stimulation index relative to control (GM-CSF priming of ROS production by peripheral monocytes) ([2]; P3, after three months of treatment (M3)): 73%
- change M0 to M6-M12 of blood neutrophils, CRP, albumin and GGT versus HC ([3]; p=0.011, 0.039, 0.006, 0.038): greater improvement
- patients weaned off oxygen at the second assessment ([3]; vs 1/15 HC, p=0.056): 2/3
- patients weaned off enteral nutrition at the second assessment ([3]; vs none of 18 HC, p=0.014): 2/3
- growth and enzyme activity in yeast impaired by Ala393Thr/Ser567Leu mutations [4]: restored
